# Measurements taken from PubChem BioAssay (NCI).
#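 At the GI50, growth is halved. TGI denotes the concentration required for complete inhibition of growth.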
# How the values were obtained:
# Assay in all cases: NCI tumour cell line growth inhibition, 384-well format
# 786-0 renal = test system: 786-0 renal
# A498 renal = test system: A498 renal
# A549 NSCLC = test system: A549 NSCLC
# ACHN renal = test system: ACHN renal
# BT-549 breast = test system: BT-549 breast
# CAKI-1 renal = test system: CAKI-1 renal
# CCRF-CEM leukemia = test system: CCRF-CEM leukemia
# COLO 205 colon = test system: COLO 205 colon
# DU-145 prostate = test system: DU-145 prostate
# EKVX NSCLC = test system: EKVX NSCLC
# HCC-2998 colon = test system: HCC-2998 colon
# HCT-116 colon = test system: HCT-116 colon
# HCT-15 colon = test system: HCT-15 colon
# HL-60(TB) leukemia = test system: HL-60(TB) leukemia
# HOP-62 NSCLC = test system: HOP-62 NSCLC
# HOP-92 NSCLC = test system: HOP-92 NSCLC
# HS 578T breast = test system: HS 578T breast
# HT29 colon = test system: HT29 colon
# IGROV1 ovarian = test system: IGROV1 ovarian
# K-562 leukemia = test system: K-562 leukemia
# KM12 colon = test system: KM12 colon
# LOX IMVI melanoma = test system: LOX IMVI melanoma
# M14 melanoma = test system: M14 melanoma
# MALME-3M melanoma = test system: MALME-3M melanoma
# MCF7 breast = test system: MCF7 breast
# MDA-MB-231 breast = test system: MDA-MB-231 breast
# MDA-MB-435 melanoma = test system: MDA-MB-435 melanoma
# MDA-MB-468 breast = test system: MDA-MB-468 breast
# MOLT-4 leukemia = test system: MOLT-4 leukemia
# NCI-H226 lung = test system: NCI-H226 lung
# NCI-H23 lung = test system: NCI-H23 lung
# NCI-H322M lung = test system: NCI-H322M lung
# NCI-H460 NSCLC = test system: NCI-H460 NSCLC
# NCI-H522 lung = test system: NCI-H522 lung
# NCI/ADR-RES ovarian = test system: NCI/ADR-RES ovarian
# OVCAR-3 ovarian = test system: OVCAR-3 ovarian
# OVCAR-4 ovarian = test system: OVCAR-4 ovarian
# OVCAR-5 ovarian = test system: OVCAR-5 ovarian
# OVCAR-8 ovarian = test system: OVCAR-8 ovarian
# PC-3 prostate = test system: PC-3 prostate
# RPMI-8226 leukemia = test system: RPMI-8226 leukemia
# RXF 393 renal = test system: RXF 393 renal
# SF-268 CNS = test system: SF-268 CNS
# SF-295 CNS = test system: SF-295 CNS
# SF-539 CNS = test system: SF-539 CNS
# SK-MEL-28 melanoma = test system: SK-MEL-28 melanoma
# SK-MEL-5 melanoma = test system: SK-MEL-5 melanoma
# SK-OV-3 ovarian = test system: SK-OV-3 ovarian
# SN12C renal = test system: SN12C renal
# SNB-19 CNS = test system: SNB-19 CNS
# SNB-75 CNS = test system: SNB-75 CNS
# SW-620 colon = test system: SW-620 colon
# T-47D breast = test system: T-47D breast
# TK-10 renal = test system: TK-10 renal
# U251 glioblastoma = test system: U251 glioblastoma
# UACC-257 melanoma = test system: UACC-257 melanoma
# UACC-62 melanoma = test system: UACC-62 melanoma
# UO-31 renal = test system: UO-31 renal
compound,measurement,setting,value
C1=C/COCc2cc(ccc2OCCN2CCCC2)Nc2nccc(n2)-c2ccc(o2)COC/1,GI50,786-0 renal,1520 nM
same,TGI,786-0 renal,4.97 µM
same,GI50,A498 renal,710 nM
same,TGI,A498 renal,4.22 µM
same,GI50,A549 NSCLC,1250 nM
same,TGI,A549 NSCLC,4.06 µM
same,GI50,ACHN renal,672 nM
same,TGI,ACHN renal,11.4 µM
same,GI50,BT-549 breast,1720 nM
same,TGI,BT-549 breast,3.21 µM
same,GI50,CAKI-1 renal,452 nM
same,TGI,CAKI-1 renal,2340 nM
same,GI50,CCRF-CEM leukemia,1530 nM
same,TGI,CCRF-CEM leukemia,2920 nM
same,GI50,COLO 205 colon,1480 nM
same,TGI,COLO 205 colon,3.92 µM
same,GI50,DU-145 prostate,1560 nM
same,TGI,DU-145 prostate,10.5 µM
same,GI50,EKVX NSCLC,1490 nM
same,TGI,EKVX NSCLC,3.37 µM
same,GI50,HCC-2998 colon,1270 nM
same,TGI,HCC-2998 colon,2830 nM
same,GI50,HCT-116 colon,852 nM
same,TGI,HCT-116 colon,10.4 µM
same,GI50,HCT-15 colon,950 nM
same,TGI,HCT-15 colon,3.23 µM
same,GI50,HL-60(TB) leukemia,479 nM
same,TGI,HL-60(TB) leukemia,1680 nM
same,GI50,HOP-62 NSCLC,1200 nM
same,TGI,HOP-62 NSCLC,2960 nM
same,GI50,HOP-92 NSCLC,1570 nM
same,TGI,HOP-92 NSCLC,5.46 µM
same,GI50,HS 578T breast,1540 nM
same,TGI,HS 578T breast,2970 nM
same,GI50,HT29 colon,1290 nM
same,TGI,HT29 colon,2820 nM
same,GI50,IGROV1 ovarian,433 nM
same,TGI,IGROV1 ovarian,1900 nM
same,GI50,K-562 leukemia,1390 nM
same,TGI,K-562 leukemia,4.12 µM
same,GI50,KM12 colon,325 nM
same,TGI,KM12 colon,1920 nM
same,GI50,LOX IMVI melanoma,892 nM
same,TGI,LOX IMVI melanoma,2180 nM
same,GI50,M14 melanoma,838 nM
same,TGI,M14 melanoma,3.05 µM
same,GI50,MALME-3M melanoma,1060 nM
same,TGI,MALME-3M melanoma,2270 nM
same,GI50,MCF7 breast,563 nM
same,TGI,MCF7 breast,1980 nM
same,GI50,MDA-MB-231 breast,1840 nM
same,TGI,MDA-MB-231 breast,9.87 µM
same,GI50,MDA-MB-435 melanoma,1470 nM
same,TGI,MDA-MB-435 melanoma,4.09 µM
same,GI50,MDA-MB-468 breast,1140 nM
same,TGI,MDA-MB-468 breast,2370 nM
same,GI50,MOLT-4 leukemia,1020 nM
same,TGI,MOLT-4 leukemia,2190 nM
same,GI50,NCI-H226 lung,1210 nM
same,TGI,NCI-H226 lung,4.18 µM
same,GI50,NCI-H23 lung,879 nM
same,TGI,NCI-H23 lung,2190 nM
same,GI50,NCI-H322M lung,1320 nM
same,TGI,NCI-H322M lung,3.51 µM
same,GI50,NCI-H460 NSCLC,792 nM
same,TGI,NCI-H460 NSCLC,2270 nM
same,GI50,NCI-H522 lung,1090 nM
same,TGI,NCI-H522 lung,2400 nM
same,GI50,NCI/ADR-RES ovarian,1970 nM
same,TGI,NCI/ADR-RES ovarian,4 µM
same,GI50,OVCAR-3 ovarian,1330 nM
same,TGI,OVCAR-3 ovarian,3.23 µM
same,GI50,OVCAR-4 ovarian,2000 nM
same,TGI,OVCAR-4 ovarian,5.1 µM
same,GI50,OVCAR-5 ovarian,590 nM
same,TGI,OVCAR-5 ovarian,4.1 µM
same,GI50,OVCAR-8 ovarian,1680 nM
same,TGI,OVCAR-8 ovarian,4.27 µM
same,GI50,PC-3 prostate,1490 nM
same,TGI,PC-3 prostate,4.88 µM
same,GI50,RPMI-8226 leukemia,1790 nM
same,TGI,RPMI-8226 leukemia,3.22 µM
same,GI50,RXF 393 renal,1250 nM
same,TGI,RXF 393 renal,2570 nM
same,GI50,SF-268 CNS,256 nM
same,TGI,SF-268 CNS,964 nM
same,GI50,SF-295 CNS,2050 nM
same,TGI,SF-295 CNS,4.49 µM
same,GI50,SF-539 CNS,1610 nM
same,TGI,SF-539 CNS,3 µM
same,GI50,SK-MEL-28 melanoma,1430 nM
same,TGI,SK-MEL-28 melanoma,3000 nM
same,GI50,SK-MEL-5 melanoma,1030 nM
same,TGI,SK-MEL-5 melanoma,2260 nM
same,GI50,SK-OV-3 ovarian,758 nM
same,TGI,SK-OV-3 ovarian,2880 nM
same,GI50,SN12C renal,587 nM
same,TGI,SN12C renal,1890 nM
same,GI50,SNB-19 CNS,2580 nM
same,TGI,SNB-19 CNS,10.6 µM
same,GI50,SNB-75 CNS,1060 nM
same,TGI,SNB-75 CNS,2270 nM
same,GI50,SW-620 colon,2440 nM
same,TGI,SW-620 colon,8.15 µM
same,GI50,T-47D breast,613 nM
same,TGI,T-47D breast,2430 nM
same,GI50,TK-10 renal,2390 nM
same,TGI,TK-10 renal,9.4 µM
same,GI50,U251 glioblastoma,1920 nM
same,TGI,U251 glioblastoma,4.79 µM
same,GI50,UACC-257 melanoma,1460 nM
same,TGI,UACC-257 melanoma,2800 nM
same,GI50,UACC-62 melanoma,798 nM
same,TGI,UACC-62 melanoma,2060 nM
same,GI50,UO-31 renal,1640 nM
same,TGI,UO-31 renal,3.85 µM
